For 33 compounds, EC50 results are on record in patent US10385022B2, “3-amino-pyridines as GPBAR1 agonists” (HOFFMANN-LA ROCHE INC., priority 2011, dated 2019).

One may read the EC50 as the concentration needed to bring the measured effect to its halfway point. A low value points to greater potency.

For the assay, the target named is human GPBAR1 receptor (Homo sapiens (Human), UniProt Q8TDU6). In words: functional cAMP assay in CHO-dhfr(minus) cells expressing human GPBAR1 receptors. It counts as cell-based. The settings on record: CHO-dhfr(minus) cells expressing human GPBAR1, 30 min at 30° C. On the procedure: The final clone was verified by DNA sequence analysis. The plasmid was transfected into CHO cells deficient in dihydrofolate reductase activity (CHO-dhfr-) using Lipofectamine plus (Invitrogen). Clones were isolated in limited dilution conditions and identified by activities in the cAMP assay using lithocholic acid as agonist.
Sequence of human GPBAR1 receptor (Q8TDU6 whole entry): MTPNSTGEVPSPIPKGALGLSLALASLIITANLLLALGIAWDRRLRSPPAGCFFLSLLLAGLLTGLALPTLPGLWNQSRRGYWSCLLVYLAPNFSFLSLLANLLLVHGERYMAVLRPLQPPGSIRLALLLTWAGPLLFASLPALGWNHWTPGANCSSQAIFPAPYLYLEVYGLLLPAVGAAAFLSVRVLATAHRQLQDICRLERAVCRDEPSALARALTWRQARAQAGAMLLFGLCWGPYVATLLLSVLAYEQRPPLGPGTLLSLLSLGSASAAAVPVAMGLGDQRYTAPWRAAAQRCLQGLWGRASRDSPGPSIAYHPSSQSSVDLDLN
EC50 values were determined using Activity Base analysis (ID Business Solution, Limited). […] Specificity for GPBAR1 was tested in non-transfected CHO cells in the same assay as above.
For `Cc1ccccc1-c1ccncc1N(C)C(=O)c1cc(Cl)cc(OC(F)(F)F)c1` [Example 100, 3-Chloro-N-methyl-N-(4-o-tolyl-pyridin-3-yl)-5-trifluoromethoxy-benzamide], the EC50 was found to be 207 nM. `CN(C(=O)c1cc(C(F)(F)F)cc(C(F)(F)F)c1)c1cnccc1-c1ccc(F)cc1OCCO` [Example 52, N-{4-[4-Fluoro-2-(2-hydroxy-ethoxy)-phenyl]-pyridin-3-yl}-N-methyl-3,5-bis-trifluoromethyl-benzamide] yielded an EC50 of 463 nM. Under `Cc1ccc(F)cc1-c1ccncc1N(C)C(=O)c1cc(C(F)(F)F)cc(S(C)(=O)=O)c1` [Example 276, N-[4-(5-Fluoro-2-methyl-phenyl)-pyridin-3-yl]-3-methanesulfonyl-N-methyl-5-trifluoromethyl-benzamide] stands 162 nM. Under `Cc1cc(C(=O)N(C)c2cnccc2-c2ccccc2C)cc(Cl)n1` [Example 119, 2-Chloro-6,N-dimethyl-N-(4-o-tolyl-pyridin-3-yl)-isonicotinamide] stands 610 nM; under `Cc1ccccc1-c1ccncc1N(CC#N)C(=O)c1cc(C(F)(F)F)cc(C(F)(F)F)c1` [Example 161, N-Cyanomethyl-N-(4-o-tolyl-pyridin-3-yl)-3,5-bis-trifluoromethyl-benzamide], 29 nM.

`CN(C(=O)c1cc(C(F)(F)F)cc(S(C)(=O)=O)c1)c1cnccc1-c1ccc(F)cc1OCc1ccccc1` [Example 267, N-[4-(2-Benzyloxy-4-fluoro-phenyl)-pyridin-3-yl]-3-methanesulfonyl-N-methyl-5-trifluoromethyl-benzamide] showed an EC50 of 3460 nM. Under `O=C(NCCN(C(=O)c1cc(C(F)(F)F)cc(C(F)(F)F)c1)c1cnccc1-c1ccccc1Cl)OCc1ccccc1` [Example 125, (2-{(3,5-Bis-trifluoromethyl-benzoyl)-[4-(2-chloro-phenyl)-pyridin-3-yl]-amino}-ethyl)-carbamic acid benzyl ester] stands 1490 nM. For the compound `COC(=O)CN(C(=O)c1cc(C(F)(F)F)cc(S(C)(=O)=O)c1)c1cnccc1-c1cc(F)c(F)cc1OC` [Example 172, [[4-(4,5-Difluoro-2-methoxy-phenyl)-pyridin-3-yl]-(3-methanesulfonyl-5-trifluoromethyl-benzoyl)-amino]-acetic acid methyl ester], the EC50 is 632 nM. Consider `COc1cc(F)ccc1-c1ccncc1N(CC1(C)COC1)C(=O)c1cc(C(F)(F)F)nc(C(F)(F)F)c1` [Example 207, N-[4-(4-Fluoro-2-methoxy-phenyl)-pyridin-3-yl]-N-(3-methyl-oxctan-3-ylmethyl)-2,6-bis-trifluoromethyl-isonicotinamide], for which the midpoint of the response, the EC50, lay at 318 nM. Under `CN(C(=O)c1cc(C(F)(F)F)cc(C(F)(F)F)c1)c1cnccc1-c1cccc(Cl)c1F` [Example 111, N-[4-(3-Chloro-2-fluoro-phenyl)-pyridin-3-yl]-N-methyl-3,5-bis-trifluoromethyl-benzamide] stands 256 nM. Under `Cc1ccccc1-c1ccncc1N(C)C(=O)c1cc(NCCO)cc(C(F)(F)F)c1` [Example 271, 3-(2-Hydroxy-ethylamino)-N-methyl-N-(4-o-tolyl-pyridin-3-yl)-5-trifluoromethyl-benzamide] stands 3130 nM.

`CN(C(=O)c1cc(C(F)(F)F)cc(C(F)(F)F)c1)c1cnccc1C1=CCOCC1` [Example 166, N-[4-(3,6-Dihydro-2H-pyran-4-yl)-pyridin-3-yl]-N-methyl-3,5-bis-trifluoromethyl-benzamide] returned a 50% effective concentration (EC50) of 1780 nM.

For the compound `COc1cc(F)c(F)cc1-c1ccncc1N(CCS(C)(=O)=O)C(=O)c1cc(C(F)(F)F)nc(C(F)(F)F)c1` [Example 158, N-[4-(4,5-Difluoro-2-methoxy-phenyl)-pyridin-3-yl]-N-(2-methanesulfonyl-ethyl)-2,6-bis-trifluoromethyl-isonicotinamide], the EC50 worked out at 210 nM. As for `COc1cc(F)ccc1-c1ccncc1N(Cc1cc(C)on1)C(=O)c1cc(C(F)(F)F)cc(S(C)(=O)=O)c1` [Example 231, N-[4-(4-Fluoro-2-methoxy-phenyl)-pyridin-3-yl]-3-methanesulfonyl-N-(5-methyl-isoxazol-3-ylmethyl)-5-trifluoromethyl-benzamide], the response was half-maximal at 3500 nM (EC50). Under `Cc1ccccc1-c1ccncc1N(C)C(=O)c1cc(C(F)(F)F)nc(S(C)(=O)=O)c1` [Example 194, 2-Methanesulfonyl-N-methyl-N-(4-o-tolyl-pyridin-3-yl)-6-trifluoromethyl-isonicotinamide] stands 258 nM; under `COc1cc(F)c(Cl)cc1-c1cc(C)ncc1N(C)C(=O)c1cc(C(F)(F)F)cc(S(=O)(=O)CCCCC(=O)O)c1` [Example 316, 5-(3-{[4-(5-Chloro-4-fluoro-2-methoxy-phenyl)-6-methyl-pyridin-3-yl]-methyl-carbamoyl}-5-trifluoromethyl-benzenesulfonyl)-pentanoic acid], 926 nM; under `Cc1ccccc1-c1ccncc1N(C)C(=O)c1ccc(Cl)c(C(F)(F)F)c1` [Example 95, 4-Chloro-N-methyl-N-(4-o-tolyl-pyridin-3-yl)-3-trifluoromethyl-benzamide], 92 nM. The figure for `CS(=O)(=O)c1cc(C(=O)N(CC(F)F)c2cnccc2-c2ccccc2F)cc(C(F)(F)F)c1` [Example 215, N-(2,2-Difluoro-ethyl)-N-[4-(2-fluoro-phenyl)-pyridin-3-yl]-3-methanesulfonyl-5-trifluoromethyl-benzamide] is 216 nM.

As to `COc1ncccc1-c1ccncc1N(CC(F)F)C(=O)c1cc(C(F)(F)F)nc(C(F)(F)F)c1` [Example 156, N-(2,2-Difluoro-ethyl)-N-(2-methoxy-[3,4′]bipyridinyl-3′-yl)-2,6-bis-trifluoromethyl-isonicotinamide], the EC50 was 36 nM.

As for `Cc1cc(Cl)cc(C(=O)N(C)c2cnccc2-c2ccccc2C)n1` [Example 122, 4-Chloro-6-methyl-pyridine-2-carboxylic acid methyl-(4-o-tolyl-pyridin-3-yl)-amide], the EC50 came out at 2430 nM. The figure for `Cc1cc(Cl)ccc1-c1ccncc1N(C)C(=O)c1cc(C(F)(F)F)cc(C(F)(F)F)c1` [Example 30, N-[4-(4-Chloro-2-methyl-phenyl)-pyridin-3-yl]-N-methyl-3,5-bis-trifluoromethyl-benzamide] is 1620 nM; for `COc1cc(F)ccc1-c1ccncc1N(C)C(=O)c1cc(Cl)nc(C(F)(F)F)c1` [Example 169, 2-Chloro-N-[4-(4-fluoro-2-methoxy-phenyl)-pyridin-3-yl]-N-methyl-6-trifluoromethyl-isonicotinamide] it is 26 nM; for `COc1cc(F)ccc1-c1ccncc1N(C)C(=O)c1cc(SCCN)cc(C(F)(F)F)c1` [Example 237, 3-(2-Amino-ethylsulfanyl)-N-[4-(4-fluoro-2-methoxy-phenyl)-pyridin-3-yl]-N-methyl-5-trifluoromethyl-benzamide] it is 340 nM. `COc1cccc(-c2ccncc2N(C)C(=O)c2cc(C(F)(F)F)cc(C(F)(F)F)c2)n1` [Example 98, N-(6-Methoxy-[2,4′]bipyridinyl-3′-yl)-N-methyl-3,5-bis-trifluoromethyl-benzamide] came in with an EC50 of 109 nM.

Turning to `COc1ccc(C(=O)N(C)c2cnccc2-c2ccccc2C)cc1C(F)(F)F` [Example 92, 4-Methoxy-N-methyl-N-(4-o-tolyl-pyridin-3-yl)-3-trifluoromethyl-benzamide], the midpoint of the response, the EC50, lay at 236 nM. Under `COc1cc(F)ccc1-c1ccncc1N(C)C(=O)c1cc(SC2COC2)cc(C(F)(F)F)c1` [Example 251, N-[4-(4-Fluoro-2-methoxy-phenyl)-pyridin-3-yl]-N-methyl-3-(oxetan-3-ylsulfanyl)-5-trifluoromethyl-benzamide] stands 30 nM; under `CN(C(=O)c1cc(C(F)(F)F)cc(C(F)(F)F)c1)c1cnccc1-c1c(F)cccc1F` [Example 64, N-[4-(2,6-Difluoro-phenyl)-pyridin-3-yl]-N-methyl-3,5-bis-trifluoromethyl-benzamide], 14 nM; under `Cc1ccccc1-c1cc(-c2ccc[nH]2)ncc1N(C)C(=O)c1cc(C(F)(F)F)cc(C(F)(F)F)c1` [Example 113, N-Methyl-N-[6-(1H-pyrrol-2-yl)-4-o-tolyl-pyridin-3-yl]-3,5-bis-trifluoromethyl-benzamide], 2010 nM. The figure for `CN(C(=O)c1cc(C(F)(F)F)cc(C(F)(F)F)c1)c1cnccc1-c1ccc(F)cc1OCC#N` [Example 51, N-[4-(2-Cyanomethoxy-4-fluoro-phenyl)-pyridin-3-yl]-N-methyl-3,5-bis-trifluoromethyl-benzamide] is 60 nM; for `COc1cc(F)ccc1-c1ccncc1N(CC(N)=O)C(=O)c1cc(C(F)(F)F)nc(C(F)(F)F)c1` [Example 177, N-Carbamoylmethyl-N-[4-(4-fluoro-2-methoxy-phenyl)-pyridin-3-yl]-2,6-bis-trifluoromethyl-isonicotinamide] it is 36 nM. Take `CN(C(=O)c1cc(C(F)(F)F)cc(C(F)(F)F)c1)c1cnccc1-c1ccc(F)cc1O` [Example 48, N-[4-(4-Fluoro-2-hydroxy-phenyl)-pyridin-3-yl]-N-methyl-3,5-bis-trifluoromethyl-benzamide]: a half-maximal response (EC50) required 307 nM. The figure for `COc1cc(F)ccc1-c1ccncc1N(C)C(=O)c1cc(F)cc(C(F)(F)F)c1` [Example 129, 3-Fluoro-N-[4-(4-fluoro-2-methoxy-phenyl)-pyridin-3-yl]-N-methyl-5-trifluoromethyl-benzamide] is 76 nM; for `Cc1ccccc1-c1ccncc1N(C(=O)c1cc(C(F)(F)F)cc(C(F)(F)F)c1)C1COC1` [Example 200, N-Oxetan-3-yl-N-(4-o-tolyl-pyridin-3-yl)-3,5-bis-trifluoromethyl-benzamide] it is 1200 nM.
